Experiment: xn = mol fraction of the nth substance listed

C=CC(=O)OCCCC + c1ccccc1
viscosity [mPa·s], 101 kPa
Settings | x2 = 0.1282 | x2 = 0.2182 | x2 = 0.2926 | x2 = 0.4108 | x2 = 0.4964 | x2 = 0.5923 | x2 = 0.708 | x2 = 0.7944 | x2 = 0.9032
298.15 K | 0.799 | 0.773 | 0.749 | 0.719 | 0.699 | 0.679 | 0.658 | 0.641 | 0.62
303.15 K | 0.738 | 0.709 | 0.686 | 0.656 | 0.636 | 0.618 | 0.601 | 0.59 | 0.574
308.15 K | 0.683 | 0.649 | 0.625 | 0.595 | 0.576 | 0.564 | 0.554 | 0.545 | 0.531
313.15 K | 0.62 | 0.585 | 0.565 | 0.538 | 0.524 | 0.51 | 0.501 | 0.496 | 0.485

C=CC(=O)OC + CCCCn1cc[n+](C)c1.F[B-](F)(F)F
303.15 K, 101 kPa
Settings | viscosity [mPa·s]
x2 = 0.5005 | 16.06
x2 = 0.9242 | 63.95

CCOC(=O)CC + C1CCCCC1
viscosity [mPa·s], 101 kPa
Settings | 298.15 K | 308.15 K
x1 = 0.0526 | 0.835 | 0.709
x1 = 0.1334 | 0.767 | 0.65
x1 = 0.2568 | 0.686 | 0.579
x1 = 0.3148 | 0.656 | 0.553
x1 = 0.4538 | 0.603 | 0.505
x1 = 0.4986 | 0.59 | 0.493
x1 = 0.5085 | 0.588 | 0.491
x1 = 0.6558 | 0.561 | 0.465
x1 = 0.7181 | 0.556 | 0.459
x1 = 0.8504 | 0.556 | 0.456
x1 = 0.9312 | 0.564 | 0.459

CC(C)CO + C1CCCCC1
303.15 K, 101.33 kPa
Settings | viscosity [mPa·s]
x2 = 0.1485 | 1.976
x2 = 0.2985 | 1.513
x2 = 0.4515 | 1.185
x2 = 0.6051 | 0.962
x2 = 0.7417 | 0.839
x2 = 0.8981 | 0.762

C1CCC2=[NH+]CCCN2CC1.c1nc[n-]n1 + CO
303.15 K, 100 kPa
Settings | viscosity [mPa·s]
x1 = 0.1001 | 5.23
x1 = 0.2 | 8.57
x1 = 0.2999 | 24.53
x1 = 0.4003 | 57.03
x1 = 0.4989 | 104.5
x1 = 0.6002 | 205.4
x1 = 0.7008 | 366.4
x1 = 0.7993 | 555.9
x1 = 0.9002 | 882.9

C=CC(=O)OC + CCCCCCCCCCCC
viscosity [mPa·s], 100 kPa
Settings | x1 = 0.0959 | x1 = 0.1996 | x1 = 0.3063 | x1 = 0.4005 | x1 = 0.5043 | x1 = 0.603 | x1 = 0.7008 | x1 = 0.8015 | x1 = 0.8993
303.15 K | 1.129 | 1.019 | 0.916 | 0.831 | 0.745 | 0.67 | 0.601 | 0.54 | 0.486
308.15 K | 1.017 | 0.918 | 0.825 | 0.751 | 0.674 | 0.611 | 0.554 | 0.502 | 0.458
313.15 K | 0.963 | 0.867 | 0.779 | 0.709 | 0.638 | 0.58 | 0.528 | 0.478 | 0.438
